Tests used:
[1] = In vitro stability of 131I-anthraquinones in rat serum by TLC; assay type: in vitro ADME; conditions: 37 °C, 24 h
Experimental: Iodogen ([…]-3a, 6a-diphenylglycouracil; Sigma, St. Louis, MO) was dissolved in dichloromethane and deposited on the wall of tubes as a thin film. Radioiodination was initiated by adding dimethylsulfoxide (DMSO) solutions of each anthraquinone (1.25 mg/mL) and Na^131I solutions (4:1, v/v) into Iodogen-coated tube, adjusting pH with phosphate buffered saline (PBS, pH 7.4). Then these mixtures were shaken and incubated at 45 °C for 2–4 h, and radiochemical purity was determined by thin-layer chromatography (TLC) using Whatman No.1 filter paper and 0.1 M hydrochloric acid as the developing solvent. Then the solvent was evaporated, the paper was cut in half and measured the radioactivity by direct γ-counting (WIZARD1470; PerkinElmer, USA). For obtaining the injectants, these mixtures were diluted with propylene glycol and polyethylene glycol 400 (1:1, v/v), respectively.
In vitro stability of eight ^131I-anthraquinones were tested in rat serum, 0.1 mL injectant was added to 0.9 mL rat serum (1:9, v/v) and incubated at 37 °C. Then radiolabeling stability was determined by TLC using the procedure described above at the time points of 0.5 h, 6 h, 12 h and 24 h, respectively.

[2] = In vitro stability of 131I-rhein in rat serum by radio-HPLC; assay type: in vitro ADME; conditions: 37 °C, 24 h
Experimental: Reversed-phase high performance liquid chromatography (RP-HPLC) was equipped with Waters 2998 PDA detector, HERM LB500 radiometric detector (Berthold Technologies, Germany), a pump (Waters 2695) and a Alltima C18 column (250 × 4.6 mm, 5 μm, GRACE). The mobile phase was methanol/0.1% phosphoric acid in water (80:20, v/v), the flow rate was 1.0 mL/min and the temperature of column was 30 °C. All solvents used for HPLC analysis were HPLC grade.
^131I-rhein was incubated in rat serum at 37 °C for 24 h, and the mixture was mixed with methanol at a ratio of 2:3 and shaken. After centrifuging the mixture at 12000 rpm for 10 min, the supernatant was collected and passed through 0.22-μm pore-size filters (Membrana, Wuppertal, NRW, Germany) for in vitro stability analysis by radio-HPLC as described above.

necrotic muscle [3] = test: Biodistribution in mice with muscular necrosis (gamma counting); assay type: in vivo, Kunming mice; conditions: model mice, 0.37 MBq i.v.
Experimental: All animals were given 0.12% potassium iodide in drinking water from 3 days before the experiment till the end of experiment to protect the thyroid gland from taking up free ^131I.
Each mouse was intramuscularly injected with 0.1 mL absolute alcohol in the left hind limb to induce muscular necrosis.
At least 12 h after recovery from surgery, each model mouse was intravenously administrated with 0.37 MBq of ^131I-anthraquinones and each rat was intravenously injected with 3.7 MBq of ^131I-rhein or ^131I-Hyp for pharmacological evaluations. All animals were intravenously administered with 0.1 ml of 1% Evans blue solution for intravital staining of necrosis that helped to selectively sample bluish necrotic tissues for radioactivity quantification.
One hundred and twenty model mice were randomly divided into 24 groups for eight tracers (n = 5 per compound and per time point). Mice were sacrificed by cervical dislocation at 2 h, 12 h and 24 h after administration. Necrotic and normal tissues of interest (blood, thyroid, lung, heart, liver, spleen, stomach, kidney, viable/necrotic muscle) were sampled, and wet weighed with the radioactivity measured by a γ-counter. Background radiation and physical decay were corrected during counting. The results were expressed as percentage of the injected dose per gram of tissue (%ID/g). Ratios of radioactivity concentrations between in necrotic and viable muscle were calculated.

necrotic muscle [4] = test: TTC staining and quantitative autoradiography of necrotic and viable muscle; parameters: species or system Kunming mice; conditions: mouse, in vivo
Experimental: The necrotic muscles were stained in 2% TTC solution at 37 °C for 15 min and digitally photographed, then cut into 50 μm frozen sections with a cryotome (Shandon FSE, Thermo Fisher Scientific Co., Waltham, MA, USA) for autoradiography. Autoradiographs of these sections were obtained by exposure to a high-performance storage phosphor screen (Cyclone; Canberra-Packard, Ontario, Canada) for 6–48 h and digitally photographed with Optiquant software (Pacard, Packard Meriden, CT, USA). Relative tracer concentrations in necrotic muscles were evaluated by regions of interest analysis and the results were compared with that from the corresponding viable muscles.

[5] = Pharmacokinetics (blood clearance) in normal rats; assay type: in vivo, Sprague-Dawley rats
Experimental: For the pharmacokinetic study, six healthy rats were intravenously injected with ^131I-rhein under anesthesia. The blood samples (10 μL) were collected by means of a tail incision at 5 min, 10 min, 30 min, 1 h, 2 h, 4 h, 6 h, 8 h, 10 h, 12 h and 24 h after administration. The radioactivity of blood samples was measured and the results were expressed as megabecquerel per liter (MBq/L). The blood pharmacokinetic parameters of the radiotracer were analyzed by using the non-compartmental analysis of Drug and Statistics for windows 2.0 software.

necrotic myocardium [6] = test: SPECT/CT imaging of rats with reperfused MI or sham operation; assay type: in vivo, Sprague-Dawley rats; conditions: 6 h after administration
infarcted myocardium = test: Autoradiography of MI heart sections from model rats; assay type: in vivo, Sprague-Dawley rats; conditions: 50 μm frozen sections
necrotic myocardium [7] = conditions: rat, in vivo, iv

SMILES: O=C(O)c1cc(O)c2c(c1)C(=O)c1ccc([131I])c(O)c1C2=O [^131I-rhein]
- stability after incubation in rat plasma (TLC) [1]: 93.17% ± 0.38%
- intact parent tracer after incubation in rat serum (radio-HPLC) [2]: 91.75% ± 0.47%
- Blood uptake (necrotic muscle [3]; 2 h after administration): 3.14 ± 0.32 %ID/g
- Heart uptake (necrotic muscle [3]; 2 h after administration): 0.47 ± 0.05 %ID/g
- Kidney uptake (necrotic muscle [3]; 2 h after administration): 2.68 ± 0.47 %ID/g
- Liver uptake (necrotic muscle [3]; 2 h after administration): 2.03 ± 0.21 %ID/g
- Lung uptake (necrotic muscle [3]; 2 h after administration): 0.95 ± 0.06 %ID/g
- N/V ratio (necrotic muscle/viable muscle) (necrotic muscle [3]; 2 h after administration): 5.84 ± 0.10
- Necrotic.m (necrotic muscle) uptake (necrotic muscle [3]; 2 h after administration): 4.61 ± 0.39 %ID/g
- Spleen uptake (necrotic muscle [3]; 2 h after administration): 0.97 ± 0.13 %ID/g
- Stomach uptake (necrotic muscle [3]; 2 h after administration): 1.40 ± 0.16 %ID/g
- Thyroid uptake (necrotic muscle [3]; 2 h after administration): 1.56 ± 0.17 %ID/g
- Viable.m (viable muscle) uptake (necrotic muscle [3]; 2 h after administration): 0.79 ± 0.08 %ID/g
- Blood uptake (necrotic muscle [3]; 12 h after administration): 1.20 ± 0.13 %ID/g
- Heart uptake (necrotic muscle [3]; 12 h after administration): 0.28 ± 0.03 %ID/g
- Kidney uptake (necrotic muscle [3]; 12 h after administration): 2.03 ± 0.12 %ID/g
- Liver uptake (necrotic muscle [3]; 12 h after administration): 1.55 ± 0.12 %ID/g
- Lung uptake (necrotic muscle [3]; 12 h after administration): 0.62 ± 0.05 %ID/g
- N/V ratio (necrotic muscle/viable muscle) (necrotic muscle [3]; 12 h after administration): 7.26 ± 0.23
- Necrotic.m (necrotic muscle) uptake (necrotic muscle [3]; 12 h after administration): 4.06 ± 0.16 %ID/g
- Spleen uptake (necrotic muscle [3]; 12 h after administration): 0.65 ± 0.08 %ID/g
- Stomach uptake (necrotic muscle [3]; 12 h after administration): 1.05 ± 0.11 %ID/g
- Thyroid uptake (necrotic muscle [3]; 12 h after administration): 0.78 ± 0.07 %ID/g
- Viable.m (viable muscle) uptake (necrotic muscle [3]; 12 h after administration): 0.56 ± 0.04 %ID/g
- Blood uptake (necrotic muscle [3]; 24 h after administration): 0.15 ± 0.01 %ID/g
- Heart uptake (necrotic muscle [3]; 24 h after administration): 0.08 ± 0.01 %ID/g
- Kidney uptake (necrotic muscle [3]; 24 h after administration): 0.65 ± 0.07 %ID/g
- Liver uptake (necrotic muscle [3]; 24 h after administration): 0.49 ± 0.05 %ID/g
- Lung uptake (necrotic muscle [3]; 24 h after administration): 0.18 ± 0.03 %ID/g
- N/V ratio (necrotic muscle/viable muscle) (necrotic muscle [3]; 24 h after administration): 12.33 ± 0.67
- Necrotic.m (necrotic muscle) uptake (necrotic muscle [3]; 24 h after administration): 0.74 ± 0.04 %ID/g
- Spleen uptake (necrotic muscle [3]; 24 h after administration): 0.29 ± 0.03 %ID/g
- Stomach uptake (necrotic muscle [3]; 24 h after administration): 0.09 ± 0.02 %ID/g
- Thyroid uptake (necrotic muscle [3]; 24 h after administration): 0.32 ± 0.06 %ID/g
- Viable.m (viable muscle) uptake (necrotic muscle [3]; 24 h after administration): 0.06 ± 0.00 %ID/g
- necrotic/viable muscle ratio by quantitative autoradiography (necrotic muscle [4]): 17.64 ± 1.28
- radioactivity concentration in blood as share of peak radioactivity concentration ([5]; 6 h): 23.47% ± 1.91%
- AUC(0 –∞) ([5]; i.v. 3.7 MBq, blood): 211.76 ± 31.18 MBq/L*h
- CLZ (clearance) ([5]; i.v. 3.7 MBq, blood): 0.67 ± 0.17 mL/min/kg
- Cmax ([5]; i.v. 3.7 MBq, blood): 42.40 ± 5.41 MBq/L
- Tmax ([5]; i.v. 3.7 MBq, blood): 4.8 ± 0 min
- VZ ([5]; i.v. 3.7 MBq, blood): 0.42 ± 0.06 L/kg
- t1/2z (elimination half-life) ([5]; i.v. 3.7 MBq, blood): 8.20 ± 0.49 h
- AUC(0 –t) ([5]; i.v. 3.7 MBq, within 24 h, blood): 187.46 ± 28.26 MBq/L*h
- SPECT/CT imaging outcome in the heart (necrotic myocardium [6]): Relatively high uptake as a hot spot showed up in the heart of the model rat
- activity in infarcted myocardium relative to viable myocardium (autoradiography) (infarcted myocardium): 14 fold
- necrotic/viable myocardium ratio (necrotic myocardium [7]): about 9.81 ± 0.61
- radioactivity concentration in blood (necrotic myocardium [7]; 6 h): 0.36 ± 0.03 %ID/g
- radioactivity concentration in infarcted myocardium (necrotic myocardium [7]; 6 h): 1.18 ± 0.03 %ID/g
- radioactivity concentration in kidney (necrotic myocardium [7]; 6 h): 0.68 ± 0.04 %ID/g
- radioactivity concentration in liver (necrotic myocardium [7]; 6 h): 0.14 ± 0.01 %ID/g
- radioactivity concentration in lung (necrotic myocardium [7]; 6 h): 0.24 ± 0.02 %ID/g
- radioactivity concentration in viable myocardium (necrotic myocardium [7]; 6 h): 0.12 ± 0.01 %ID/g

SMILES: O=C1c2ccccc2C(=O)c2c1ccc([131I])c2O [^131I-1-hydroxyanthraquinone]
- stability after incubation in rat plasma (TLC) [1]: 87.93% ± 0.45%
- Blood uptake (necrotic muscle [3]; 2 h after administration): 3.19 ± 0.35 %ID/g
- Heart uptake (necrotic muscle [3]; 2 h after administration): 0.58 ± 0.06 %ID/g
- Kidney uptake (necrotic muscle [3]; 2 h after administration): 1.64 ± 0.17 %ID/g
- Liver uptake (necrotic muscle [3]; 2 h after administration): 1.07 ± 0.11 %ID/g
- Lung uptake (necrotic muscle [3]; 2 h after administration): 1.12 ± 0.09 %ID/g
- N/V ratio (necrotic muscle/viable muscle) (necrotic muscle [3]; 2 h after administration): 3.71 ± 0.37
- Necrotic.m (necrotic muscle) uptake (necrotic muscle [3]; 2 h after administration): 2.75 ±0.31 %ID/g
- Spleen uptake (necrotic muscle [3]; 2 h after administration): 1.04 ± 0.08 %ID/g
- Stomach uptake (necrotic muscle [3]; 2 h after administration): 1.40 ± 0.13 %ID/g
- Thyroid uptake (necrotic muscle [3]; 2 h after administration): 1.53 ± 0.21 %ID/g
- Viable.m (viable muscle) uptake (necrotic muscle [3]; 2 h after administration): 0.74 ± 0.05 %ID/g
- Blood uptake (necrotic muscle [3]; 12 h after administration): 0.66 ± 0.04 %ID/g
- Heart uptake (necrotic muscle [3]; 12 h after administration): 0.11 ± 0.01 %ID/g
- Kidney uptake (necrotic muscle [3]; 12 h after administration): 0.37 ± 0.02 %ID/g
- Liver uptake (necrotic muscle [3]; 12 h after administration): 0.24 ± 0.03 %ID/g
- Lung uptake (necrotic muscle [3]; 12 h after administration): 0.33 ± 0.04 %ID/g
- N/V ratio (necrotic muscle/viable muscle) (necrotic muscle [3]; 12 h after administration): 4.22 ± 0.02
- Necrotic.m (necrotic muscle) uptake (necrotic muscle [3]; 12 h after administration): 0.59 ± 0.05 %ID/g
- Spleen uptake (necrotic muscle [3]; 12 h after administration): 0.26 ± 0.02 %ID/g
- Stomach uptake (necrotic muscle [3]; 12 h after administration): 0.82 ± 0.09 %ID/g
- Thyroid uptake (necrotic muscle [3]; 12 h after administration): 0.46 ± 0.03 %ID/g
- Viable.m (viable muscle) uptake (necrotic muscle [3]; 12 h after administration): 0.14 ± 0.01 %ID/g
- Blood uptake (necrotic muscle [3]; 24 h after administration): 0.07 ± 0.01 %ID/g
- Heart uptake (necrotic muscle [3]; 24 h after administration): 0.02 ± 0.00 %ID/g
- Kidney uptake (necrotic muscle [3]; 24 h after administration): 0.04 ± 0.01 %ID/g
- Liver uptake (necrotic muscle [3]; 24 h after administration): 0.08 ± 0.01 %ID/g
- Lung uptake (necrotic muscle [3]; 24 h after administration): 0.05 ± 0.01 %ID/g
- N/V ratio (necrotic muscle/viable muscle) (necrotic muscle [3]; 24 h after administration): 5.83 ± 0.29
- Necrotic.m (necrotic muscle) uptake (necrotic muscle [3]; 24 h after administration): 0.35 ± 0.02 %ID/g
- Spleen uptake (necrotic muscle [3]; 24 h after administration): 0.02 ± 0.00 %ID/g
- Stomach uptake (necrotic muscle [3]; 24 h after administration): 0.09 ± 0.01 %ID/g
- Thyroid uptake (necrotic muscle [3]; 24 h after administration): 0.33 ± 0.04 %ID/g
- Viable.m (viable muscle) uptake (necrotic muscle [3]; 24 h after administration): 0.06 ± 0.00 %ID/g
- necrotic/viable muscle ratio by quantitative autoradiography (necrotic muscle [4]): 9.16 ± 0.78
